Key:
human red blood cells = test: Red blood cell lysis; format: cell-based; settings: 24 h incubation; 3 donors
Experimental: A 2% v/v solution of human red blood cells was prepared in RPMI 1640. […] A 1% solution of Triton X-100 was used as a positive reference for 100% cell lysis. Dextran and poly-L lysine were used as negative and positive controls respectively. An equal volume of the sample and red blood cells were aliquoted into a 96 well microbtre plate and incubated at 37° C. After 1 h and after 24 h, each sample was centrifuged (2,000 g, 10 min) and the supernatant added to a 96 well microtitre plate. The absorbance was measured at 490 nm using a spectrophotometer. The degree of lysis was expressed as a percentage of the 100% lysis caused by Triton X-100.
Lyophilised amphotericin B-PMMA-Na was stored at 4° C. under argon for 4 months. It was also solubilised in 5% dextrose at a concentration of 1 mg/ml and stored at 4° C. for 7 months under argon.
Freshly prepared, clinical grade amphotericin B was used as a reference for the comparison. Incubations were undertaken for 1 h and 6 h.

[1] = test system: Leishmania mexicana promastigotes; test: Viability of Leishmania mexicana promastigotes (MTT); format: cell-based; settings: 24 h + 24 h MTT at 26° C.
Experimental: (§1) Leishmania mexicana promastgotes were used for these experiments. They were maintained in Schneider's Drosophila growth medium (Invitrogen) supplemented with 15% fetal calf serum (heat inactivated at 56° C. for 1 hour) and gentamicin (1 mg/100 ml). The parasite concentration was adjusted to 2×10^6 parasites/ml. Doubling dilutions of the test compound were prepared at twice the desired final concentration in growth media. An equal volume of the drug and the parasite suspension were then mixed in a 96 well plate and incubated for 24 h at 26° C. At this time, MTT (5 mg/ml) was added and the plate incubated for a further 24 h at 26° C. The plate was then centrifuged (2000 g, 5 min), the supernatant discarded and the pellet resuspended in 100 μl DMSO. Absorbance was measured at 570 nm using a spectrophotometer. The results were expressed as the percentage viability of the promastigotes with 100% viability being determined using the OD of the untreated, replicating promastigotes in the control wells.

[2] = test system: Leishmania donovani promastigotes; test: Viability of Leishmania donovani promastigotes (MTT); format: cell-based; settings: 24 h + 24 h MTT at 26° C.
Experimental: as §1, with “donovania promastigotes” for “mexicana promastgotes”, “Growth Media 199” for “Drosophila growth medium (Invitrogen)”

[3] = test system: intracellular Leishmania mexicana amastigotes; test: Inhibition of intracellular Leishmania mexicana amastigote growth in human monocyte derived macrophages (infection index); format: cell-based; settings: 72 h at 32° C.
Experimental: (§2) Leishmania mexicana amastigotes were used to infect human monocyte derived macrophages that were maintained in RPMI 1640 (Invitrogen) supplemented with 10% human serum (heat inactivated at 56° C. for 1 hour) and 200 IU/ml penicillin and 200 μg/ml streptomycin. The cells were plated at 10^6 cells/ml into Lab-Tek Chamber Slides (Nunc) and incubated at 37° C./5% CO2 for 3 days. The media was then aspirated from the chamber slides and an equal volume of fresh media added back in which the amastigote concentration had been adjusted to give a parasite:cell infection ratio of 5:1. The cells were then incubated at 32° C. for 20 h to enable infection of the macrophages to become established. Media was then aspirated from the chamber slides and replaced with doubling dilutions of the test compound. The cells were then incubated at 32° C. for 72 h. After washing with PBS, the chambers were detached, the slides allowed to dry and then fixed in methanol. Each slide was then stained with Giemsa and examined microscopically. A total of 250 cells were counted to determine the number of infected and uninfected cells.
(§3) The infection index was calculated as the average number of parasites/cell multiplied by the percentage of infected cells.

[4] = test system: intracellular Leishmania donovani amastigotes; test: Inhibition of intracellular Leishmania donovani amastigote growth in human monocyte derived macrophages (infection index); format: cell-based; settings: 72 h at 32° C.
Experimental: as §2, with “donovani” for “mexicana”
as §3

[5] = test system: Leishmania donovani amastigotes; test: Mouse model of visceral leishmaniasis (liver parasite burden); format: in vivo, BALB/c mice
Experimental: Leishmania donovani strain (MHOM/ET/67/L82) amastigotes were collected from the spleens of heavily infected donor Syrian Hamsters-Mesocritetus auratus. An inoculum containing 7.5-10×10^7 amastigotes/mL was prepared. Female BALB/c mice (20 g) that were specified pathogen free were infected intravenously with 200 μL (equivalent to 1.5-2×10^7 amastigotes) on day 0. The end point of infection was evaluated by microscopic reading on day 14 to check for the level of infection in one mouse, and on day 21 post-infection of Giemsa stained liver impressions to determine the total parasite burden.
The following compounds were administered intravenously according to the following regimens:—
There were 5 animals in each group. […] All drug preparations were filtered using a […] syringe filter. The intravenous volume of injection was 200 μL per injection.
Groups of mice were weighed before and after treatment as a measure of toxicity and the percentage weight change noted. On day 21 after infection (which was 3 days after the completion of treatment), the parasite burden was determined microscopically from methanol fixed liver impression slides stained with 10% Giemsa. The number of amastigotes/500 liver cells were counted microscopically and the results expressed as a percentage of the untreated control.

visceral leishmaniasis = settings: intravenous, daily or every other day, 15-20 infusions at 0.75-1 mg/kg/day; cited from earlier work

C[C@@H]1[C@H](O)[C@@H](C)/C=C/C=C/C=C/C=C/C=C/C=C/C=C/[C@H](O[C@@H]2O[C@H](C)[C@@H](O)[C@H](N)[C@@H]2O)C[C@@H]2O[C@](O)(C[C@@H](O)C[C@@H](O)[C@H](O)CC[C@@H](O)C[C@@H](O)CC(=O)O[C@H]1C)C[C@H](O)[C@H]2C(=O)O [clinical grade amphotericin B, amphotericin B]
red cell lysis (toxicity) (human red blood cells): 100% | 90% lethal dose (LD90) [1]: 1.49 µg/mL | 90% lethal dose (LD90) [2]: 1.91 µg/mL | 50% inhibition of intracellular amastigote growth [3]: 0.14 µg/mL | 90% inhibition of intracellular amastigote growth [3]: 0.95 µg/mL | 50% inhibition of intracellular amastigote growth [4]: 0.54 µg/mL | 90% inhibition of intracellular amastigote growth [4]: 2.31 µg/mL | killing activity of Leishmania donovani amastigotes compared to the controls ([5]; 1 mg/kg i.v. days 14, 16 and 18, liver, day 21, P<0.0001): significant killing activity | anti-leishmanial activities compared with each other ([5]; clinical grade amphotericin B, Ambisome, amphotericin B-PMAA-Na (2 mg/kg), P<0.05 as printed): not significantly different from each other | Long-term cure rates (visceral leishmaniasis): 97%
